Results on 37 molecules are retold here after patent US20210220328A1, “PYRROLE DERIVATIVES AS ACC INHIBITORS” (Almirall, S.A., priority 2017, published 2021).

The test system of the test is immortalized human sebocyte cell line, SZ95. As to the kind of experiment: In vitro assay of inhibition of lipid synthesis. Particulars: 48 h, SZ95 sebocytes. It counts as cell-based. The procedure:
In Vitro Assay of Inhibition of Lipid Synthesis
To evaluate the inhibition of lipid synthesis, the immortalized human sebocyte cell line, SZ95 (stablished by Zouboulis, C. C. et al J Invest Dermatol 1999; 113:1011-20), was treated with arachidonic acid (AA) in presence or absence of compound. Lipids were detected by using a lipid sensing fluorophore.
Compounds were dissolved in dimethylsulfoxide (DMSO) 100%. Then the stocks were serial diluted 1/3 in DMSO 100%, and this battery of solutions were diluted 1/10 in culture medium, to minimize the percentage of the DMSO over cells.
10 k cells were plated in 384 well microtiter plates and incubated at 37° C. and 5% CO2 in DMEM/F12 supplemented with 10% FBS, 1.25 ng/ml of rhEGF and GA-1000 before of compound and stimulus addition. After 24 h, compounds dissolved in culture media were added over cells, diluting the solutions prepared 1/40 in the final volume of the assay. Then, cells and compounds were preincubated for 30 min at 37° C. and 5% CO2. After this prior incubation, the lipid synthesis was induced by 75 μM of AA final solution, preparing a solution 10× in culture media. Finally, SZ95 treated were incubated for 48 h at 37° C. and 5% CO2.
Neutral lipids were measured using AdipoRed™, purchased from LONZA. To do that, cells were washed with PBS and incubated with a solution of AdipoRed™ (final dilution 1/80 in PBS) for 30 min at room temperature. After the staining process, the fluorescence intensity (FI) was quantified using a fluorescence plate reader (excitation 485 nm; emission 535).
Activity of compounds were calculated as % of inhibition considering the maximal fluorescence for AA-stimulated cells and the minimum fluorescence for unstimulated cells as controls.

[1] abbreviates: lipid synthesis induced by 75 μM arachidonic acid, AdipoRed fluorescence, Table 1.
Where [2] appears, read: 75 μM arachidonic acid, AdipoRed, Table 2, finer classes for compounds with IC50 less than 250 nM.

A value given as a limit tells only on which side of the number the result lay.

A word on the IC50: it is the concentration that gives 50% inhibition. A higher IC50 goes with weaker potency in that assay.

Under setting [1], `CCCCCCCCCCCCCc1c[nH]c(C(=O)O)c1C` [Example 101, 3-Methyl-4-tridecyl-1H-pyrrole-2-carboxylic acid] returned a 50% inhibitory concentration (IC50) of 1000 to 5000 nM.
Regarding `CCCCCCCCCCCCCc1c[nH]c(C(=O)OCCOCCOCC)c1F` [Example 43, 2-(2-Ethoxyethoxy)ethyl 3-fluoro-4-tridecyl-1H-pyrrole-2-carboxylate], the IC50 reads like this: under setting [2], less than 50 nM; under setting [1], less than 250 nM.
Taken in the same sequence, the figures for `CCCCCCCCCOc1c[nH]c(C(=O)O)c1Cl` [Example 77, 3-chloro-4-(nonyloxy)-1H-pyrrole-2-carboxylic acid] were 50 to 100 nM and less than 250 nM.
Consider `CCCCCCCCCCCCCc1cn(CCCC)c(C(=O)O)c1F` [Example 69, 1-Butyl-3-fluoro-4-tridecyl-1H-pyrrole-2-carboxylic acid], for which the IC50 under setting [1] lay in the range of 1000 to 5000 nM.
Still for that read-out and setting: with `CCCCCCCCCCCCCc1c[nH]c(C(=O)OC2CCCCC2)c1F` [Example 25, Cyclohexyl 3-fluoro-4-tridecyl-1H-pyrrole-2-carboxylate] the figure was 1000 to 5000 nM.
On to `CCCCCCCCCCCOc1c[nH]c(C(=O)O)c1Cl` [Example 79, 3-Chloro-4-(undecyloxy)-1H-pyrrole-2-carboxylic acid], for which the IC50 reads like this: under setting [2], less than 50 nM; under setting [1], less than 250 nM.
Taken in the same sequence, the figures for `CCCCCCCCCCCCc1cc(F)c(C(=O)O)[nH]1` [Example 55, 5-Dodecyl-3-fluoro-1H-pyrrole-2-carboxylic acid] were 50 to 100 nM and less than 250 nM.
For `CCCCCCCCCCCCCc1c[nH]c(C(=O)OC(C)(C)C)c1F` [Example 24, Tert-butyl 3-fluoro-4-tridecyl-1H-pyrrole-2-carboxylate], the IC50 under setting [1] is 250 to 1000 nM.
As for `CCCCCCCCCCCCc1cc(Cl)c(C(=O)OC(C)OC(=O)OC(C)C)[nH]1` (stereo not shown) [Example 115, 1-((Isopropoxycarbonyl)oxy)ethyl 3-chloro-5-dodecyl-1H-pyrrole-2-carboxylate], the IC50 is 100 to 250 nM under setting [2] and less than 250 nM under setting [1].
For `CCCCCCCCCCCC(F)(F)Cc1c[nH]c(C(=O)O)c1F` [Example 94, 4-(2,2-Difluorotridecyl)-3-fluoro-1H-pyrrole-2-carboxylic acid], in that order: 100 to 250 nM and less than 250 nM.
For `CCCCCCCCCCCOc1c[nH]c(C(=O)O)c1F` [Example 72, 3-Fluoro-4-(undecyloxy)-1H-pyrrole-2-carboxylic acid], in that order: less than 50 nM and less than 250 nM.
`CCCCCCCCCCCCc1c[nH]c(C(=O)OCCN2C(=O)CCC2=O)c1Cl` [Example 60, 2-(2,5-dioxopyrrolidin-1-yl)ethyl 3-chloro-4-dodecyl-1H-pyrrole-2-carboxylate] registered an IC50 under setting [1] of 1000 to 5000 nM.
`CCCCCCCCCCCOc1c[nH]c(C(=O)OC(C)OC(=O)OCCOCCOCC)c1F` (stereo not shown) [Example 107, 4-Oxo-3,5,8,11-tetraoxatridecan-2-yl 3-fluoro-4-(undecyloxy)-1H-pyrrole-2-carboxylate] showed a half-inhibitory concentration (IC50) under setting [2] of less than 50 nM and an IC50 under setting [1] of less than 250 nM.
For `CCCCCCCCCCCc1c[nH]c(C(=O)O)c1Cl` [Example 57, 3-Chloro-4-undecyl-1H-pyrrole-2-carboxylic acid], in that order: less than 50 nM and less than 250 nM.
`CCCCCCCCCCCCCc1c[nH]c(C(=O)OCCO)c1F` [Example 32, 2-Hydroxyethyl 3-fluoro-4-tridecyl-1H-pyrrole-2-carboxylate] had a half-maximal inhibitory concentration (IC50) under setting [1] of 250 to 1000 nM.
For the molecule `CCCCCCCCCCCCCc1c[nH]c(C(=O)OCCCO)c1F` [Example 33, 3-Hydroxypropyl 3-fluoro-4-tridecyl-1H-pyrrole-2-carboxylate], the IC50 is, setting by setting: under setting [2], 50 to 100 nM; under setting [1], less than 250 nM.
In the case of `CCCCCCCCCCCCCc1c[nH]c(C(=O)OCC(F)(F)F)c1F` [Example 27, 2,2,2-Trifluoroethyl 3-fluoro-4-tridecyl-1H-pyrrole-2-carboxylate], the IC50 by setting is: under setting [2], less than 50 nM; under setting [1], less than 250 nM.
For `CCCCCCCCCCC(C)(C)Cc1c[nH]c(C(=O)O)c1F` [Example 102, 4-(2,2-Dimethyldodecyl)-3-fluoro-1H-pyrrole-2-carboxylic acid], in that order: less than 50 nM and less than 250 nM.
Take `CCCCCCCCCCCCc1c[nH]c(C(=O)O)c1Cl` [Example 58, 3-Chloro-4-dodecyl-1H-pyrrole-2-carboxylic acid]: the IC50 is, setting by setting: under setting [2], less than 50 nM; under setting [1], less than 250 nM.
As for `CCCCCCCCCCCCCCC(=O)c1c[nH]c(C(=O)O)c1F` [Example 91, 3-Fluoro-4-pentadecanoyl-1H-pyrrole-2-carboxylic acid], under setting [1], the half-maximal inhibitory concentration (IC50) was 1000 to 5000 nM.
Still for that read-out and setting: for `CCCCCCCCCCCCOc1c[nH]c(C(=O)OCCOC(=O)[C@@H](N)C(C)C)c1` [Example 10, 2-((L-valyl)oxy)ethyl 4-(dodecyloxy)-1H-pyrrole-2-carboxylate] the value was 1000 to 5000 nM; for `CCCCCCCCCCCCCc1c[nH]c(C(=O)O)c1Br` [Example 68, 3-Bromo-4-tridecyl-1H-pyrrole-2-carboxylic acid], 250 to 1000 nM.
As for `CCCCCCCCCCCCCc1c[nH]c(C(=O)OCCOCCOCCOCCO)c1F` [Example 42, 2-(2-(2-(2-Hydroxyethoxy)ethoxy)ethoxy)ethyl 3-fluoro-4-tridecyl-1H-pyrrole-2-carboxylate], the IC50 under setting [2] lay in the range of 100 to 250 nM and the IC50 under setting [1] was less than 250 nM.
Taken in the same sequence, the figures for `CCCCCCCCCCCCCc1c[nH]c(C(=O)OCCCCCCCO)c1F` [Example 37, 7-Hydroxyheptyl 3-fluoro-4-tridecyl-1H-pyrrole-2-carboxylate] were 100 to 250 nM and less than 250 nM.
For `CCCCCCCCCCCCCOc1c[nH]c(C(=O)O)c1F` [Example 74, 3-Fluoro-4-(tridecyloxy)-1H-pyrrole-2-carboxylic acid], in that order: less than 50 nM and less than 250 nM.
Taken in the same sequence, the figures for `CCCCCCCCCCCCCc1c[nH]c(C(=O)OCC(=O)N(C)CC(=O)OCC)c1F` [Example 31, 2-((2-Ethoxy-2-oxoethyl)(methyl)amino)-2-oxoethyl 3-fluoro-4-tridecyl-1H-pyrrole-2-carboxylate] were less than 50 nM and less than 250 nM.
`CCCCCCCCCCc1c[nH]c(C(=O)O)c1F` [Example 12, 4-Decyl-3-fluoro-1H-pyrrole-2-carboxylic acid]: the IC50 by setting is: under setting [2], less than 50 nM; under setting [1], less than 250 nM.
Taken in the same sequence, the figures for `CCCCCCCCCCCCCc1c[nH]c(C(=O)OCCCCCO)c1F` [Example 35, 5-Hydroxypentyl 3-fluoro-4-tridecyl-1H-pyrrole-2-carboxylate] were 100 to 250 nM and less than 250 nM.
For `CCCCCCCCCCCOc1c[nH]c(C(=O)OCC(F)(F)F)c1F` [Example 103, 2,2,2-Trifluoroethyl 3-fluoro-4-(undecyloxy)-1H-pyrrole-2-carboxylate], in that order: less than 50 nM and less than 250 nM.
Taken in the same sequence, the figures for `CCCCCCCCCCCCCc1c[nH]c(C(=O)OCc2oc(=O)oc2C)c1F` [Example 30, (5-Methyl-2-oxo-1,3-dioxol-4-yl)methyl 3-fluoro-4-tridecyl-1H-pyrrole-2-carboxylate] were less than 50 nM and less than 250 nM.
For the molecule `CCCCCCCCCCCCCc1c[nH]c(C(=O)OC(C)OC(=O)OCCOC)c1F` (stereo not shown) [Example 49, 1-(((2-Methoxyethoxy)carbonyl)oxy)ethyl 3-fluoro-4-tridecyl-1H-pyrrole-2-carboxylate], the IC50 by setting is: under setting [2], less than 50 nM; under setting [1], less than 250 nM.
Under setting [1], `CCCCCCCCCCCCCCc1cc(Cl)c(C(=O)O)[nH]1` [Example 67, 3-Chloro-5-tetradecyl-1H-pyrrole-2-carboxylic acid] yielded an IC50 of 250 to 1000 nM.
Regarding `CCCCCCCCCCCCCc1c[nH]c(C(=O)OC(C)OC(=O)OC(C)C)c1F` (stereo not shown) [Example 44, 1-((Isopropoxycarbonyl)oxy)ethyl 3-fluoro-4-tridecyl-1H-pyrrole-2-carboxylate], the IC50 is, setting by setting: under setting [2], less than 50 nM; under setting [1], less than 250 nM.
With `CCCCCCCCCCCc1cc(F)c(C(=O)O)[nH]1` [Example 119, 3-Fluoro-5-undecyl-1H-pyrrole-2-carboxylic acid], the IC50 reads like this: under setting [2], 50 to 100 nM; under setting [1], less than 250 nM.
Taken in the same sequence, the figures for `CCCCCCCCCCCCCc1c[nH]c(C(=O)OCCCCCCCCCO)c1F` [Example 39, 9-Hydroxynonyl 3-fluoro-4-tridecyl-1H-pyrrole-2-carboxylate] were less than 50 nM and less than 250 nM.
For `CCCCCCCCCCCCc1cc(Cl)c(C(=O)OC(C)OC(=O)OCCOC)[nH]1` (stereo not shown) [Example 116, 1-(((2-Methoxyethoxy)carbonyl)oxy)ethyl 3-chloro-5-dodecyl-1H-pyrrole-2-carboxylate], the IC50 is 50 to 100 nM under setting [2] and less than 250 nM under setting [1].
As for `CCCCCCCCCCCCOc1c[nH]c(C(=O)OCc2oc(=O)oc2C)c1Cl` [Example 88, (5-Methyl-2-oxo-1,3-dioxol-4-yl)methyl 3-chloro-4-(dodecyloxy)-1H-pyrrole-2-carboxylate], the IC50 is less than 50 nM under setting [2] and less than 250 nM under setting [1].
